What was measured:
[1] = system: healthy keratinocytes; assay: CyQUANT proliferation assay, healthy keratinocytes; assay type: cell-based, human; details: healthy KC; PD98059 20 μM or S3I-201 10 μM, 48 h
Description: (§1) Figure 6 IL-22-induced proliferation and migration of healthy and transformed keratinocytes is counteracted by KIR-ESS peptide (A) Healthy KC, CAL27 and CAL33 cultures were plated in 96-well plates in quadruplicate for each condition. After 1 day, cells were pre-treated or not with Ctrl1 or KIR-ESS peptides (40 μM), or S31-201 ([…]) and PD98059 ([…]) chemical inhibitors, and, then, stimulated or not with 50 ng/ml of IL-22. Data relative to 48-h treatment are shown and expressed as the values of fluorescence intensity obtained from untreated and IL-22-treated ± SD. Three independent experiments were performed. *p < 0.01. […] (C) Cell-free area was measured and indicated as residual wound. […]
(§2) SOCS1- and SOCS3 stably transfected keratinocytes or cultured keratinocytes previously transfected with SOCS3 or control siRNA were seeded in 96-well plates (1.5–2.0 × 10^4 cells/well), and, the day after, starved in medium without serum. At 60% confluence, cells were treated with 75 ng/ml of IL-22 for 3 days, stained with 0.5% crystal violet (Bio-Rad, Hercules, CA, USA), and then analyzed in an ELISA reader (model 3550 UV ELISA reader; Bio-Rad). […] After 1-h pre-incubation, cells were treated with IL-22 or left unstimulated, cultured for other 24, 48 and 72 h, and the number of viable cells determined by CyQUANT Cell Proliferation Assay, accordingly to manufacture's protocol. […]

[2] = system: CAL33 cells; assay: Scratch assay (migration), CAL33; assay type: cell-based; details: 24 h
Description: (§3) Figure 6 IL-22-induced proliferation and migration of healthy and transformed keratinocytes is counteracted by KIR-ESS peptide (A) Healthy KC, CAL27 and CAL33 cultures were plated in 96-well plates in quadruplicate for each condition. After 1 day, cells were pre-treated or not with Ctrl1 or KIR-ESS peptides (40 μM), or S31-201 ([…]) and PD98059 ([…]) chemical inhibitors, and, then, stimulated or not with 50 ng/ml of IL-22. Data relative to 48-h treatment are shown and expressed as the values of fluorescence intensity obtained from untreated and IL-22-treated ± SD. Three independent experiments were performed. *p < 0.01. (B) Scratch assays were carried out on healthy or SCC-lines, pre-incubated with mitomycin C (5 mg/ml), pre-treated with Ctrl1 or KIR-ESS peptides (40 μM), or S31-201 ([…]) or PD98059 ([…]) chemical inhibitors, and, then, stimulated or not with IL-22 for 24 h. Microscopic images were taken immediately after and 24 h after wound induction on confluent cell layers. Initial scratches (0 h) are dashed blank. (C) Cell-free area was measured and indicated as residual wound. Data are reported as healed wound (gray area of bars) vs residual wound (white area of bars) which a value of 100% was given. *p < 0.01.
(§4) Cultured keratinocytes and SCC cell lines were grown at 100% confluence on type IV collagen (20 μg/ml), and then incubated with mitomycin C (5 mg/ml) (Sigma-Aldrich) for 1 h. Cell monolayers were scratched with the tip of a p-200 pipette to create uniform cell-free zones, and, then, pre-treated with appropriate concentrations of SOCS3 mimetic or control peptides, or with 10 μM STAT3 (S3I-201, Santa Cruz) and 20 μM Erk1/2 (PD98059, Calbiochem) inhibitors for 1 h, before treating by 50 ng/ml of IL-22. Microscopy pictures were taken with a digital camera at different time points following IL-22 treatment. The residual gap between migrating keratinocytes was measured with a computer-assisted image analysis system (Axiovision; Zeiss, Oberkochen, Germany), and expressed as percentage of the initial scratched area.

[3] = system: healthy keratinocytes; assay: Scratch assay (migration), healthy keratinocytes; assay type: cell-based, human; details: without IL-22, 40 μM peptide or PD98059 20 μM, 24 h
Description: as §1, with “0.01. (B) Scratch assays were carried out on healthy or SCC-lines, pre-incubated with mitomycin C (5 mg/ml), pre-treated with Ctrl1 or KIR-ESS peptides (40 μM), or S31-201 ([…]) or PD98059 ([…]) chemical inhibitors, and, then, stimulated or not with IL-22 for 24 h.” for “0.01.”
Cultured keratinocytes and SCC cell lines were grown at 100% confluence on type IV collagen (20 μg/ml), and then incubated with mitomycin C (5 mg/ml) (Sigma-Aldrich) for 1 h. […] The residual gap between migrating keratinocytes was measured with a computer-assisted image analysis system (Axiovision; Zeiss, Oberkochen, Germany), and expressed as percentage of the initial scratched area.

[4] = system: SCC-cell lines (CAL27 and CAL33); assay: CyQUANT proliferation assay, SCC-cell lines; assay type: cell-based; details: PD98059 20 μM or S3I-201 10 μM, 48 h
Description: as §1, §2

[5] = system: CAL27 cells; assay: Scratch assay (migration), CAL27; assay type: cell-based; details: CAL27; 40 μM peptide, PD98059 20 μM or S3I-201 10 μM; IL-22 50 ng/ml, 24 h
Description: as §3, §4

COc1cccc(-c2cc(=O)c3ccccc3o2)c1N [PD98059]
proliferation (effect relative to KIR-ESS) [1]: KIR-ESS effect was similar to that observed in all healthy and transformed keratinocyte cultures | wound closure / migration, resting cells ([2]; CAL33, without IL-22, 40 μM peptide or PD98059 20 μM): efficacious in inhibiting migration of CAL27 cells and healthy or CAL33 keratinocytes, respectively | wound closure, IL-22-treated ([2]; CAL33, 40 μM peptide, PD98059 20 μM or S3I-201 10 μM, IL-22 50 ng/ml): effect similar to those obtained with the chemical Erk1/2 and STAT3 inhibitors | wound closure / migration, resting cells [3]: efficacious in inhibiting migration of CAL27 cells and healthy or CAL33 keratinocytes, respectively | proliferation (effect relative to KIR-ESS) [4]: KIR-ESS effect was similar to that observed in all healthy and transformed keratinocyte cultures | wound closure, IL-22-treated [5]: effect similar to those obtained with the chemical Erk1/2 and STAT3 inhibitors
